In this assay the test system is subject's skin. The assay can be described thus: pre-cooling skin treatment followed by cooling (freeze) treatment at subject's flank, compared to a control site. The settings on record: general statement of the inventors' finding. The format is in vivo, human. Here is the method:
A mixture of trehalose, water, and […] (PG) was tested as a pre-cooling skin treatment. The mixture was formed by combining 100 grams of trehalose, 100 mL of water, and 40 mL of PG. The trehalose was expected to provide cryoprotection, while the water and PG were expected to act as penetration-enhancing excipients. A first site at a subject's right flank was given the pre-cooling skin treatment, while an opposite second site at the subject's left flank was designated as a control. The pre-cooling treatment at the first site included placing a small piece of rayon fabric soaked in […] of the mixture directly onto the subject's skin and waiting for 12 minutes. It was expected that passive diffusion of trehalose into the subject's skin occurred to some extent during this period. Next, an ultrasound cavitation device (40 kHz) was moved top-to-bottom and bottom-to-top over the subject's skin at the first site for 3 minutes. During this period, 5 mL of the mixture was poured over the subject's skin at the first site.
After the pre-cooling skin treatment at the first site, an applicator having a rectangular plate-type heat-transfer surface with an area of 1.7 square inches was used to execute a cooling treatment at the first and second sites. […]

Regarding `OC[C@H]1O[C@H](O[C@H]2O[C@H](CO)[C@@H](O)[C@H](O)[C@H]2O)[C@H](O)[C@@H](O)[C@@H]1O` [trehalose], the “reducing cryoinjury to skin cells” value is listed as “effective”.

The record behind these values is patent publication US20230285260A1, “USE OF SACCHARIDES FOR CRYOPROTECTION AND RELATED TECHNOLOGY” (Zeltiq Aesthetics, Inc., priority 2017, published 2023).
